Test system: PBMC of RRMS patients
Assay: Gene expression microarray analysis (HG-U133A-2) of PBMC from RRMS patients treated with LAQ, ancillary study to ALLEGRO
Assay type: in vivo, human
Conditions: for Fold-Change (1.0 vs. 0.0): one month of treatment
Source text: The goal of this ancillary study was to characterize gene expression changes and corresponding biological mechanisms induced in PBMC of RRMS patients by LAQ treatment. According to ALLEGRO clinical trial inclusion criteria, 25 patients were randomly assigned to receive LAQ (n=13, age 38.8±2.3 years, female/male ratio: 8/5) or placebo (n=12, age 37.2±3.4 years, female/male ratio: 8/4).
Peripheral blood samples were obtained from RRMS patients at baseline before start of LAQ treatment or placebo, after 0, 1, 6 and 24 month of treatment (visit 0, 1, 6 and 7 according to ALLEGRO clinical trial protocol correspondently) for gene microarray analysis.
Briefly, 1) Peripheral blood mononuclear cells (PBMC) were obtained from RRMS patients that participated in ALLEGRO and were treated daily with 0.6 mg LAQ or placebo. PBMC were subjected for gene expression analysis (HU-133A-2-Affymatrix arrays) at baseline and at 1 and 6 months of LAQ treatment; 2) Data was analyzed by Partek Genomics Solution software. Most informative genes (MIGs) were defined as those that differentiated between groups with p<0.01. Gene functional annotation, enrichment and pathway analysis were performed by Ingenuity software. For each time point, genes that changed in placebo group were excluded from further analysis; and 3) Verification of LAQ related mechanism was performed by Western blot.
PBMC were extracted from 15 ml peripheral blood, separated by Ficoll-Hypaque gradient. Total RNA was extracted using both Trizol (Invitrogen, USA) and Phase-Lock-Gel columns (Eppendorf, Germany) including a DNase digestion step. RNA integrity was assessed by RNA Experion automated electrophoresis system (Bio-Rad Laboratories, Hercules, Calif.).
Probe synthesis using 3 μg total RNA, hybridization, detection, and scanning was performed according to the standard Affymetrix, Inc. USA protocols; cDNA was synthesized using the Two-Cycle cDNA Synthesis Kit (Affymetrix, Inc., USA), and in-vitro transcription performed with the GeneChip IVT Labeling Kit (Affymetrix, Inc., USA). The biotin-labeled IVT-RNA was hybridized to HG-U133A-2 arrays containing 18,400 gene transcripts, each corresponding to 14,500 well-annotated human genes, washed in a GeneChip Fluidics Station 450 (Hewlett Packard, USA, GeneArray-™ scanner G2500A) and scanned according to the manufacturer's protocol (Affymetrix, Inc., USA).
Data analysis was performed on Partek Genomics Solution software (www.partek.com; Partek Incorporated, St. Louis, Mo.). Expression values were computed from raw CEL files by applying the Robust Multi-Chip Average (RMA) background correction algorithm. RMA correction included: 1) values background correction; 2) quintile normalization; 3) log 2 transformation; and 4) median polish summarization. The ANOVA, Repeated Measures and correlation analysis implicated in Partek software ware applied to evaluate LAQ effects. Most informative genes MIGs were defined as those that differentiated between experimental groups with p<0.01. All p-values were calculated for False Discovery Rate (FDR) multiple test correction at p=0.05.
Additionally, significance of individual genes was tested by parametric T-test and non parametric Mann-Whitney test using Bootstrapping approach based on repeated permutations of the data with 5% FDR for multiple testing.
Gene functional annotation, enrichment, and pathway analyses to identify the leading biological pathways that operated under LAQ treatment were performed by Ingenuity Pathways Analysis software (www.ingenuity.com).
ANOVA analysis was used to compare PBMC gene expression after 1, 6 or 24 month of LAQ treatment with baseline gene expression.
For each time point inventors performed analysis source of variation in dataset. (FIG. 1). Age, gender and batch effects were considered as confounders regarding LAQ or Placebo related changes. For each time point genes associated with Placebo effect were evaluated and excluded from further analysis. […]

[1] = 1 month of LAQ 0.6 mg/day vs baseline
[2] = 6 months of LAQ 0.6 mg/day vs baseline
[3] = 1564 FDR genes, combined 6 and 24 months

CCN(C(=O)c1c(O)c2c(Cl)cccc2n(C)c1=O)c1ccccc1 [LAQ, 5-chloro-N-ethyl-4-hydroxy-1-methyl-2-oxo-N-phenyl-1,2-dihydroquinoline-3-carboxamide]
# of genes p < 0.01 (LAQ related MIGs, ANOVA) [1]: 354
Down regulated genes (LAQ related MIGs) [1]: 348
Up-regulated genes (LAQ related MIGs) [1]: 6
# of genes p < 0.01 (LAQ related MIGs, ANOVA) [2]: 1562
Down regulated genes (LAQ related MIGs) [2]: 1552
Up-regulated genes (LAQ related MIGs) [2]: 10
p, suppression of genes related to the TGFB pathway (6 months or longer treatment): 1.9*10^−2
genes (n), suppression of cell migration function [3]: 233
genes (n), suppression of chemotaxis [3]: 78
p, suppression of cell migration function [3]: 4.5*10^−14
p, suppression of chemotaxis [3]: 4.3*10^−5
Fold-Change (1.0 vs. 0.0) (202280_at (gene symbol not given)): −1.157
Fold-Change (1.0 vs. 0.0) (ABLIM3 205730_s_at): −1.542
Fold-Change (1.0 vs. 0.0) (ALDOB 204704_s_at): −1.119
Fold-Change (1.0 vs. 0.0) (APBA2 209871_s_at): −1.163
Fold-Change (1.0 vs. 0.0) (ARHGEF10 215139_at): −1.176
Fold-Change (1.0 vs. 0.0) (ARMCX6 /// LOC653354 214749_s_at): −1.178
Fold-Change (1.0 vs. 0.0) (ASAP2 206414_s_at): −1.773
Fold-Change (1.0 vs. 0.0) (C1orf116 219476_at): −1.222
Fold-Change (1.0 vs. 0.0) (CA5A 207421_at): −1.243
Fold-Change (1.0 vs. 0.0) (CALD1 201617_x_at): −1.326
Fold-Change (1.0 vs. 0.0) (CALD1 212077_at): −1.896
Fold-Change (1.0 vs. 0.0) (CAPRIN1 200722_s_at): −1.157
Fold-Change (1.0 vs. 0.0) (CCDC93 209689_at): −1.133
Fold-Change (1.0 vs. 0.0) (CD84 211190_x_at): −1.166
Fold-Change (1.0 vs. 0.0) (CDC14B 208022_s_at): −1.4133
Fold-Change (1.0 vs. 0.0) (CLDN5 204482_at): −1.364
Fold-Change (1.0 vs. 0.0) (CTDSPL 201905_s_at): −1.468
Fold-Change (1.0 vs. 0.0) (DLG4 210684_s_at): −1.187
Fold-Change (1.0 vs. 0.0) (DNM3 209839_at): −1.8
Fold-Change (1.0 vs. 0.0) (FABP7 205030_at): −1.176
Fold-Change (1.0 vs. 0.0) (FAM12B 220759_at): −1.1468
Fold-Change (1.0 vs. 0.0) (FBXO7 201178_at): −1.135
Fold-Change (1.0 vs. 0.0) (FBXW7 218751_s_at): −1.112
Fold-Change (1.0 vs. 0.0) (FSTL1 208782_at): −1.694
Fold-Change (1.0 vs. 0.0) (GNAS 200780_x_at): −1.158
Fold-Change (1.0 vs. 0.0) (GNAS 200981_x_at): −1.1585
Fold-Change (1.0 vs. 0.0) (GNAS 212273_x_at): −1.156
Fold-Change (1.0 vs. 0.0) (GNAS 214548_x_at): −1.159
Fold-Change (1.0 vs. 0.0) (GNB5 207124_s_at): −1.1663
Fold-Change (1.0 vs. 0.0) (GNB5 211871_x_at): −1.159
Fold-Change (1.0 vs. 0.0) (GP1BA 207389_at): −1.548
Fold-Change (1.0 vs. 0.0) (GPRASP1 204793_at): −1.16
Fold-Change (1.0 vs. 0.0) (GRAP2 208406_s_at): −1.394
Fold-Change (1.0 vs. 0.0) (GSPT1 217595_at): −1.116
Fold-Change (1.0 vs. 0.0) (GUCY1B3 203817_at): −1.73
Fold-Change (1.0 vs. 0.0) (H2BFS /// HIST1H2BK 208579_x_at): −1.481
Fold-Change (1.0 vs. 0.0) (HIST1H2AC 215071_s_at): −1.628
Fold-Change (1.0 vs. 0.0) (HIST1H2AJ 208583_x_at): −1.278
Fold-Change (1.0 vs. 0.0) (HIST1H2BK 209806_at): −1.418
Fold-Change (1.0 vs. 0.0) (HLA-E 217456_x_at): −1.062
Fold-Change (1.0 vs. 0.0) (IGF2BP3 203819_s_at): −1.72
Fold-Change (1.0 vs. 0.0) (ITGB1 211945_s_at): −1.17
Fold-Change (1.0 vs. 0.0) (ITGB3 204628_s_at): −1.579
Fold-Change (1.0 vs. 0.0) (ITGB3 215240_at): −1.589
Fold-Change (1.0 vs. 0.0) (ITGB5 201125_s_at): −1.713
Fold-Change (1.0 vs. 0.0) (LIMS1 207198_s_at): −1.445
Fold-Change (1.0 vs. 0.0) (LIMS1 212687_at): −1.3332
Fold-Change (1.0 vs. 0.0) (LOC150776 /// SMPD4 207856_s_at): −1.0672
Fold-Change (1.0 vs. 0.0) (LOC157627 214839_at): 1.326
Fold-Change (1.0 vs. 0.0) (LUC7L2 220099_s_at): −1.155

Reference: patent US20160201132A1, “GENE EXPRESSION BIOMARKERS OF LAQUINIMOD RESPONSIVENESS” (Teva Pharmaceutical Industries Ltd., priority 2013, published 2016)
